Source: ChEMBL document CHEMBL5724914, “Linking interpersonal differences in gut microbiota composition and drug biotransformation activity” (2024)

Columns and labels:
[1] = The drug is tested on Z-030 corresponding to mouse gut metagenome with ENA study accession number: PRJEB37062 and ENA sample accession number: ERS12561829 for biotransformation under anaerobic condition. The drug concentrations were measured over 9 timepoints collected between 0 and 24 hours of incubation by liquid-chromatography-coupled mass spectrometry (LC–MS); conditions: 2 µM
[2] = The drug is tested on Z-027 corresponding to metagenome with ENA study accession number: PRJEB37062 and ENA sample accession number: ERS12561826 for biotransformation under anaerobic condition. The drug concentrations were measured over 9 timepoints collected between 0 and 24 hours of incubation by liquid-chromatography-coupled mass spectrometry (LC–MS); conditions: 2 µM
[3] = The drug is tested on Z-020 corresponding to rabbit gut metagenome with ENA study accession number: PRJEB37062 and ENA sample accession number: ERS12561819 for biotransformation under anaerobic condition. The drug concentrations were measured over 9 timepoints collected between 0 and 24 hours of incubation by liquid-chromatography-coupled mass spectrometry (LC–MS); conditions: 2 µM
[4] = The drug is tested on Z-019 corresponding to rat gut metagenome with ENA study accession number: PRJEB37062 and ENA sample accession number: ERS12561818 for biotransformation under anaerobic condition. The drug concentrations were measured over 9 timepoints collected between 0 and 24 hours of incubation by liquid-chromatography-coupled mass spectrometry (LC–MS); conditions: 2 µM
[5] = The drug is tested on Z-007 corresponding to rat gut metagenome with ENA study accession number: PRJEB37062 and ENA sample accession number: ERS12561807 for biotransformation under anaerobic condition. The drug concentrations were measured over 9 timepoints collected between 0 and 24 hours of incubation by liquid-chromatography-coupled mass spectrometry (LC–MS); conditions: 2 µM
[6] = The drug is tested on Z-005 corresponding to metagenome with ENA study accession number: PRJEB37062 and ENA sample accession number: ERS12561805 for biotransformation under anaerobic condition. The drug concentrations were measured over 9 timepoints collected between 0 and 24 hours of incubation by liquid-chromatography-coupled mass spectrometry (LC–MS); conditions: 2 µM
[7] = The drug is tested on Z-002 corresponding to rabbit gut metagenome with ENA study accession number: PRJEB37062 and ENA sample accession number: ERS12561802 for biotransformation under anaerobic condition. The drug concentrations were measured over 9 timepoints collected between 0 and 24 hours of incubation by liquid-chromatography-coupled mass spectrometry (LC–MS); conditions: 2 µM
[8] = The drug is tested on Z-001 corresponding to mouse gut metagenome with ENA study accession number: PRJEB37062 and ENA sample accession number: ERS12561801 for biotransformation under anaerobic condition. The drug concentrations were measured over 9 timepoints collected between 0 and 24 hours of incubation by liquid-chromatography-coupled mass spectrometry (LC–MS); conditions: 2 µM
[9] = The drug is tested on WLS-098 corresponding to human gut metagenome with ENA study accession number: PRJEB37062 and ENA sample accession number: ERS12561754 for biotransformation under anaerobic condition. The drug concentrations were measured over 9 timepoints collected between 0 and 24 hours of incubation by liquid-chromatography-coupled mass spectrometry (LC–MS); conditions: 2 µM
[10] = The drug is tested on WLS-073 corresponding to human gut metagenome with ENA study accession number: PRJEB37062 and ENA sample accession number: ERS12561749 for biotransformation under anaerobic condition. The drug concentrations were measured over 9 timepoints collected between 0 and 24 hours of incubation by liquid-chromatography-coupled mass spectrometry (LC–MS); conditions: 2 µM
[11] = The drug is tested on WLS-069 corresponding to human gut metagenome with ENA study accession number: PRJEB37062 and ENA sample accession number: ERS12561748 for biotransformation under anaerobic condition. The drug concentrations were measured over 9 timepoints collected between 0 and 24 hours of incubation by liquid-chromatography-coupled mass spectrometry (LC–MS); conditions: 2 µM
[12] = The drug is tested on WLS-007 corresponding to human gut metagenome with ENA study accession number: PRJEB37062 and ENA sample accession number: ERS12561742 for biotransformation under anaerobic condition. The drug concentrations were measured over 9 timepoints collected between 0 and 24 hours of incubation by liquid-chromatography-coupled mass spectrometry (LC–MS); conditions: 2 µM
[13] = human gut metagenome, 24 h, 2 µM
[14] = human gut metagenome, 24 h, 2 µM; remark: listed apart in the source
[15] = human gut metagenome, 24 h, 2 µM; remark: listed apart in the source
[16] = human gut metagenome, 24 h, 2 µM; remark: listed apart in the source
[17] = human gut metagenome, 24 h, 2 µM; remark: listed apart in the source
[18] = human gut metagenome, 24 h, 2 µM; remark: listed apart in the source
[19] = human gut metagenome, 24 h, 2 µM; remark: listed apart in the source
[20] = human gut metagenome, 24 h, 2 µM; remark: listed apart in the source
Also: call rule not given here.

Row | Structure (SMILES) | Bacterial Biotransformation [1] | Bacterial Biotransformation [2] | Bacterial Biotransformation [3] | Bacterial Biotransformation [4] | Bacterial Biotransformation [5] | Bacterial Biotransformation [6] | Bacterial Biotransformation [7] | Bacterial Biotransformation [8] | Bacterial Biotransformation [9] | Bacterial Biotransformation [10] | Bacterial Biotransformation [11] | Bacterial Biotransformation [12] | Bacterial Biotransformation [13] | Bacterial Biotransformation [14] | Bacterial Biotransformation [15] | Bacterial Biotransformation [16] | Bacterial Biotransformation [17] | Bacterial Biotransformation [18] | Bacterial Biotransformation [19] | Bacterial Biotransformation [20]
1 | CC(C)N(CCC(C(N)=O)(c1ccccc1)c1ccccn1)C(C)C.O=P(O)(O)O (stereo not given) [DISOPYRAMIDE PHOSPHATE] | Compound NOT metabolized | Compound NOT metabolized | Compound NOT metabolized | Compound NOT metabolized | Compound NOT metabolized | Compound NOT metabolized | Compound NOT metabolized | Compound NOT metabolized | Compound metabolized | Compound NOT metabolized | Compound NOT metabolized | Compound metabolized | Compound NOT metabolized | Compound NOT metabolized | Compound NOT metabolized | Compound NOT metabolized | Compound NOT metabolized | Compound metabolized | Compound NOT metabolized | Compound metabolized
2 | C[C@@H](CO)NC(=O)[C@@H]1C=C2c3cccc4[nH]cc(c34)C[C@H]2N(C)C1.O=C(O)/C=C\C(=O)O [ERGONOVINE MALEATE] | Compound NOT metabolized | Compound NOT metabolized | Compound NOT metabolized | Compound NOT metabolized | Compound NOT metabolized | Compound NOT metabolized | Compound NOT metabolized | Compound NOT metabolized | Compound NOT metabolized | Compound metabolized | Compound metabolized | Compound NOT metabolized | Compound metabolized | Compound metabolized | Compound metabolized | Compound metabolized | Compound metabolized | Compound metabolized | Compound NOT metabolized | Compound metabolized
3 | CCN(CC)C(C)CN1c2ccccc2Sc2ccccc21 (stereo not given) [ETHOPROPAZINE] | Compound NOT metabolized | Compound NOT metabolized | Compound NOT metabolized | Compound NOT metabolized | Compound NOT metabolized | Compound metabolized | Compound metabolized | Compound metabolized | Compound metabolized | Compound metabolized | Compound metabolized | Compound metabolized | Compound metabolized | Compound metabolized | Compound metabolized | Compound metabolized | Compound metabolized | Compound metabolized | Compound NOT metabolized | Compound metabolized
4 | Cc1nc(-c2ccc(OCC(C)C)c(C#N)c2)sc1C(=O)O [FEBUXOSTAT] | Compound NOT metabolized | Compound metabolized | Compound metabolized | Compound NOT metabolized | Compound NOT metabolized | Compound metabolized | Compound metabolized | Compound NOT metabolized | Compound metabolized | Compound NOT metabolized | Compound metabolized | Compound NOT metabolized | Compound metabolized | Compound metabolized | Compound metabolized | Compound metabolized | Compound metabolized | Compound metabolized | Compound NOT metabolized | Compound metabolized
5 | CC(C)(C(=O)O)c1ccc(C(O)CCCN2CCC(C(O)(c3ccccc3)c3ccccc3)CC2)cc1 (stereo not given) [FEXOFENADINE] | Compound NOT metabolized | Compound NOT metabolized | Compound NOT metabolized | Compound NOT metabolized | Compound NOT metabolized | Compound NOT metabolized | Compound metabolized | Compound NOT metabolized | Compound NOT metabolized | Compound NOT metabolized | Compound NOT metabolized | Compound NOT metabolized | Compound NOT metabolized | Compound NOT metabolized | Compound NOT metabolized | Compound NOT metabolized | Compound NOT metabolized | Compound NOT metabolized | Compound NOT metabolized | Compound NOT metabolized
